# Measurements: US7705030B2, “Amino-5-(5-membered)hetero-arylimidazolone compounds and the use thereof for β-secretase modulation” (Wyeth LLC, priority 2005, dated 2010)
# pIC50: −log10 of the molar value.
# Legend:
# human BACE1 = human BACE1 (Homo sapiens, UniProt P56817); experiment: Fluorescent kinetic assay: Evaluation of BACE-1 Binding Affinity of Test Compounds; format: biochemical; details: 10 nM enzyme, 25 μM substrate WABC-6, 50 mM Na-Acetate pH 4.5, room temperature
# Method in brief: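 Run with 10 nM human BACE1 and 25 μM WABC-6 FRET peptide in 50 mM Na-acetate pH 4.5, 0.05% CHAPS, 25% PBS at room temperature. Fluorescence (ex 320/em 420 nm) was read every 40 sec for 30 min, and initial cleavage rates were taken from linear slopes across ≥10 inhibitor concentrations.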
# Chain of human BACE1 (P56817 46-501): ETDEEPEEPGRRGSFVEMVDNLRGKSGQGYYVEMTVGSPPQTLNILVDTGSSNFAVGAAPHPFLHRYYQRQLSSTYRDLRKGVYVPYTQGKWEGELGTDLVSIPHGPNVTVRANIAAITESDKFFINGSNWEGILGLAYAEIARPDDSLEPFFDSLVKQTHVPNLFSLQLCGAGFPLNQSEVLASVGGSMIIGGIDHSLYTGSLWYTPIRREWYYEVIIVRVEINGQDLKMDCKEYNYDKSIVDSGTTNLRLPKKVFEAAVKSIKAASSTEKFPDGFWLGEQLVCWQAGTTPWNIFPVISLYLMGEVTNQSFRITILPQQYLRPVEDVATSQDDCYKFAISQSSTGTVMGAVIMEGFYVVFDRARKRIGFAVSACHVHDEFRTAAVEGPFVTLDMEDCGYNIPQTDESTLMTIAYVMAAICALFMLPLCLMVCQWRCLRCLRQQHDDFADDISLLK
pIC50 (human BACE1),melting point [°C],Compound
7.00 to 8.00,175 to 177,CN1C(=O)C(c2cccc(-c3cccnc3F)c2)(c2cc(C#N)n(CCF)c2)N=C1N (stereo not shown) [Example 231]
6.00 to 6.96,132 to 134,CCCn1cc(C2(c3cccc(-c4cc(F)cnc4Cl)c3)N=C(N)N(C)C2=O)cc1C#N (stereo not shown) [Example 232]
7.00 to 8.00,118 to 120,CCCCNC(=O)c1cc(C2(c3cccc(-c4cccnc4F)c3)N=C(N)N(C)C2=O)cn1CC (stereo not shown) [Example 160]
7.00 to 8.00,165 to 166,CCCn1cc(C2(c3cccc(-c4cncnc4)c3)N=C(N)N(C)C2=O)cc1C#N (stereo not shown) [Example 229]
7.00 to 8.00,114 to 116,"CCC(=O)c1cc([C@]2(c3ccc(F)c(-c4cccnc4F)c3)N=C(N)N(C)C2=O)cn1CC [Example 183A, (5S)-2-Amino-5-(1-ethyl-5-propionyl-1H-pyrrol-3-yl)-5-[4-fluoro-3-(2-fluoropyridin-3-yl)phenyl]-3-methyl-3,5-dihydro-4H-imidazol-4-one]"
